Laboratory results reported in patent US7977360B2, “Benzo[d]isoxazol-3-yl-amine compounds and their use as vanilloid receptor ligands” (Gruenenthal GmbH, priority 2005, dated 2011).

Molecular target: T1, vanilloid receptor 1 (VR1/TRPV1 receptor) (Rattus norvegicus, UniProt O35433)
T1 construct: endogenous in cells; host or cells: primary cultured dorsal root ganglion cells from rats
Test: Functional study on vanilloid receptor 1 (VR1/TRPV1), FLIPR Ca2+ inflow assay in rat dorsal root ganglia cells (method I)
Type: cell-based
Conditions: compound 10 μM, rat DRG cells; for inhibition at 10 µM: then 100 nM capsaicin after 5 min, per method % inhibition vs maximum achievable inhibition with 10 μM capsaicin, read-out: rVR1 [10 μM] inhibition; for rVR1 [10 μM] stimulation: per method % activation in relation to the Ca2+ signal after 10 μM capsaicin
Description: I. Functional Study on Vanilloid Receptor 1 (VR1/TRPV1 Receptor)
The agonistic or antagonistic effect of the substances to be studied on vanilloid receptor 1 (VR1/TRPV1) of the rat species can be determined with the following assay. According to this assay, the Ca^2+ inflow through the receptor canal is quantified with the help of a Ca^2+-sensitive dye (type Fluo-4, Molecular Probes Europe BV, Leiden Netherlands) in the Fluorescent Imaging Plate Reader (FLIPR, Molecular Devices, Sunnyvale, USA).
Complete medium: 50 mL HAMS F12 Nutrient Mixture (Gibco Invitrogen GmbH, Karlsruhe, Germany) with • 10% by vol. FCS (fetal calf serum, Gibco Invitrogen GmbH, Karlsruhe, Germany, heat-inactivated); • 2 mM L-glutamine (Sigma, Munich, Germany); • 1% by weight AA solution (antibiotic/antimycotic solution, PAA, Pasching, Austria) and 25 ng/ml medium NGF (2.5 S, Gibco Invitrogen GmbH, Karlsruhe, Germany)
Cell culture plate: Poly-D-Lysin-coated, 96 well black/clear plates (BD Biosciences, Heidelberg, Germany) are additionally coated with laminin (Gibco Invitrogen GmbH, Karlsruhe, Germany) by diluting laminin to a concentration of […] with PBS (Ca—Mg-free PBS, Gibco Invitrogen GmbH, Karlsruhe, Germany). Aliquots with a concentration of 100 μg/mL of laminin are removed and stored at −20° C. The aliquots are diluted with PBS in a ratio of 1:10 to 10 μg/mL of laminin and respectively 50 μL of the solution is pipetted into a recess of the cell culture plate. Die cell culture plates are incubated for at least two hours at 37° C., the remaining solutions is filtered off by suction and the recesses are each washed twice with PBS. The coated cell culture plates are stored with the remaining PBS and this is only removed directly before the addition of the cells.
The spinal column is removed from decapitated rats and this is placed directly in a cold HBSS buffer (Hank's buffered saline solution, Gibco Invitrogen GmbH, Karlsruhe, Germany), located in an ice bath, to which is added 1% by vol. (percent by volume) of an AA solution (antibiotic/antimycotic solution, PM, Pasching, Austria). The spinal column is divided longitudinally and removed from the vertebral canal together with fascia. The dorsal root ganglia (DRGs) are subsequently removed and in turn stored in cold HBSS buffer to which is added 1% by vol. of an AA solution. The DRGs which have been made completely free of blood residues and spinal nerves are transported in each case into 500 μL cold collagenase type 2 (PAA, Pasching, Austria) and incubated for 35 minutes at 37° C. […]
The DRGs are each multiply suspended, drawn by means of a syringe through cannulas no. […] The resultant pellet is respectively received in 250 μL complete medium and the cell number determined. […]

T1 sequence (O35433 whole entry): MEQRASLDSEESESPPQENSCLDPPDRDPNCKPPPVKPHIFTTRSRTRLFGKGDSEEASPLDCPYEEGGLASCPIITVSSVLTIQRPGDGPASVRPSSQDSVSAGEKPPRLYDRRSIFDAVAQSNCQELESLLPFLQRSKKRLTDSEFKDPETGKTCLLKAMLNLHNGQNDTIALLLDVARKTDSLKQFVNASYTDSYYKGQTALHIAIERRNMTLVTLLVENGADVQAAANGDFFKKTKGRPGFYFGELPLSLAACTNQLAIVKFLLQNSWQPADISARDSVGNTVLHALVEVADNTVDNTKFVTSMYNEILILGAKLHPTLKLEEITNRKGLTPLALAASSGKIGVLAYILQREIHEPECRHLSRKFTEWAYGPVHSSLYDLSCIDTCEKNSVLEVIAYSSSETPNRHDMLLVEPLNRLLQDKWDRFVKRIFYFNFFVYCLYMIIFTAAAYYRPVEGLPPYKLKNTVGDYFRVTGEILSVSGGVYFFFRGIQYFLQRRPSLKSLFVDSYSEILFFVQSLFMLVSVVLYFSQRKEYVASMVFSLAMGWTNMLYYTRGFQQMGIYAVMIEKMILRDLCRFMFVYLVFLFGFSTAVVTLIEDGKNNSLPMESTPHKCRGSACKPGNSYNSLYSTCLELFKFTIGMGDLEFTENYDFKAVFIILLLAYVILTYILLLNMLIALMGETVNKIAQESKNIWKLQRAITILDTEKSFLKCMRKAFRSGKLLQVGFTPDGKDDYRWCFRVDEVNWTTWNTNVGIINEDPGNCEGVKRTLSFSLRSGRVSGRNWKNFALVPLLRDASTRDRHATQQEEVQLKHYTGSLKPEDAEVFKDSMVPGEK

| inhibition at 10 µM [%] | rVR1 [10 μM] stimulation [%] | SMILES |
| --- | --- | --- |
| 65 | 0 | CC(C)(C)c1ccc(CNc2noc3cc(-c4ccccn4)ccc23)cc1 [Compound 9, (4-tert-butyl-benzyl)-(6-pyridine-2-yl-benzo[d]isoxazol-3-yl)-amine] |
| 99 | 29 | Cc1cccnc1-c1ccc2c(NCc3ccc(C(C)(C)C)cc3)noc2c1 [Compound 10, (4-tert-butyl-benzyl)-[6-(3-methyl-pyridine-2-yl)-benzo[d]isoxazol-3-yl]-amine] |
